The results in this text go back to patent US20080292619A1, “Pharmaceutical Composition Containing Meltrin Antagonist” (MOCHIDA PHARMACEUTICAL CO., LTD., priority 2004, published 2008).

In the oligonucleotide strings, read from the 5' end, every base follows the letter of its sugar. An asterisk marks phosphorothioate; unmarked linkages are phosphodiester. Other units and linkages are bracketed, terminal groups are in braces. A string of capitals states the bases alone. d = 2'-deoxy (DNA)

In one data set the test system is human meltrin α RNA. The data set can be described thus: Suppression of human meltrin α expression by antisense compound in RD cell (real time PCR). Conditions: 50 nM; RD cell; corrected by GAPDH. The format is cell-based. The procedure: First, RD cell (ATCC) was suspended in DMEM containing 10% fetal bovine serum (FBS, SIGMA), and the suspension was inoculated in 6 well culture plate at 2.5×10^5 cells/well/2 mL. After incubating overnight at 37° C. in the presence of 5% CO2, the cells were washed twice with serum-free DMEM, and Opti-MEM medium (GIBCO) was added at 800 μL/well.
Gene transfection reagent Lipofectin (Invitrogen) was diluted with Opti-MEM to 20 μg/mL, and the dilution was allowed to stand at room temperature for 30 minutes. Next, the antisense oligodeoxynucleotide synthesized as described above was heated at 90° C. for 3 minutes, and after quenching on ice, diluted with Opti-MEM to a concentration 10 times higher than the final concentration. Equal amounts of the Lipofectin in Opti-MEM and the antisense oligo DNA in Opti-MEM were mixed, and the mixture was incubated at room temperature for 15 minutes and added to 6 well plate at 200 μL/well.
The culture was incubated at 37° C. for 4 hours in the presence of 5% CO2, and the culture supernatant containing the Lipofectin was removed. The cells were washed twice with serum-free DMEM, and after adding 1 mL/well of Opti-MEM and incubating for 18 hours at 37° C. in the presence of 5% CO2, the cells were subjected to the measurement of the level of expression of meltrin α RNA.
After the washing, RNA was isolated from the cell by using RNA isolation kit (RNeasy Micro Kit, QIAGEN) according to the protocol of the kit, and RNA concentration was determined by measuring absorbance at a wavelength of 260 nm with a spectrophotometer (Nano prop, LMS Co., Ltd.) (1OD=40 μg/mL). After the quantitation, the RNA was prepared to a concentration of 0.1 μg/μL by using DEPC-treated water.
0.35 μg of the isolated RNA, and 3.5 μL of 10× TaqMan buffer, 7.7 μL of 25 mM MgCl2, 7.0 μL of 2.5 mM each dNTP Mix, 1.75 μL of 50 μM Random Hexamers, 0.7 μL of 20 U/μL RNase inhibitor, and 0.9 μL of 50 U/μL MultiScribe Reverse Transcriptase (all purchased from Applied Biosystems) were mixed, and water was added to make up the total volume to 35 μL. This solution was maintained at 25° C. for 10 minutes, at 48° C. for 30 minutes, and at 95° C. for 5 minutes, and reverse transcription was conducted to synthesize cDNA.
A solution in total volume of 20 μL containing 10 μL of TaqMan Universal PCR Master Mix, 0.4 μL of 10 μM TaqMan MGB Probe (sequence 5′FAM-caccgaaggacaatccca-MGB-3′: Applied Biosystems), 0.1 μL of 50 μM Forward primer (sequence ggaagccgccagattcct) for detecting meltrin α, 0.1 μL of 50 μM Reverse primer (sequence […]) for detecting meltrin α (all purchased from Sigma-Genosys), 5 μL of the cDNA solution of (3), and 4.4 μL of water was prepared, and after maintaining the solution at 50° C. for 2 minutes and at 95° C. for 10 minutes, PCR was conducted by repeating 40 cycles of 95° C. for 15 seconds and 60° C. for 1 minute in ABI Prism 7000.
The amount of the human meltrin α RNA was measured by conducting real time PCR by using the plasmid containing the cDNA coding for the human meltrin α for the template to generate the standard curve, and calculating RNA copy number of the meltrin α in each sample. The level of expression of GAPDH was also determined by using a primer and probe set for real time PCR of human GAPDH (Pre-Developed TaqMan Assay Reagents Human GAPDH (20×) (Cat# 4310884E, Applied Biosystems).
The results of the real time PCR of the meltrin α was corrected by the level of expression of the GAPDH to calculate the suppression rate. […]
(In general: Quantitative PCR measures a nucleic acid by following its amplification.)
Consider “H146 + 10: ctggccaaggcatgagtgag (dC*dT*dG*dG*dC*dC*dA*dA*dG*dG*dC*dA*dT*dG*dA*dG*dT*dG*dA*dG; antisense)”, for which the “suppression rate of expression, 50 nM” value is reported as “+ (“+” when the suppression rate was at least 30%)”. Regarding “H135: aacattctgacactgcagca (AACATTCTGACACTGCAGCA; antisense; DNA, all phosphorothioate, methylation of C not given here)”, the “suppression rate of expression, 50 nM” value was “+ (“+” when the suppression rate was at least 30%)”. Regarding “H010: cctcggcgagtcagctccgg (CCTCGGCGAGTCAGCTCCGG; antisense; DNA, all phosphorothioate, methylation of C not given here)”, the “suppression rate of expression, 50 nM” value was “++ (“++” when the suppression rate was at least 50%)”. Take “H143 + 12: tctgaggggggtttggctta (TCTGAGGGGGGTTTGGCTTA; antisense; DNA, all phosphorothioate, methylation of C not given here)”: the “suppression rate of expression, 50 nM” value was “+ (“+” when the suppression rate was at least 30%)”. On the same count and under the same terms, with “H110: caagccctgggtccggcatg (dC*dA*dA*dG*dC*dC*dC*dT*dG*dG*dG*dT*dC*dC*dG*dG*dC*dA*dT*dG; antisense)” the entry was “+ (“+” when the suppression rate was at least 30%)”; with “H130 + 15: tggccgaggtgagcctgaca (TGGCCGAGGTGAGCCTGACA; antisense; DNA, all phosphorothioate, methylation of C not given here)”, “++ (“++” when the suppression rate was at least 50%)”; with “H172: gcacagctgggggtagttgg (dG*dC*dA*dC*dA*dG*dC*dT*dG*dG*dG*dG*dG*dT*dA*dG*dT*dT*dG*dG; antisense)”, “+ (“+” when the suppression rate was at least 30%)”. Regarding “H150 + 15: ggtggatctgggcacttggt (dG*dG*dT*dG*dG*dA*dT*dC*dT*dG*dG*dG*dC*dA*dC*dT*dT*dG*dG*dT; antisense)”, the “suppression rate of expression, 50 nM” value is reported as “+ (“+” when the suppression rate was at least 30%)”. On the same count and under the same terms, the value for “H144 + 19: tggccagaggatctgcaggc (TGGCCAGAGGATCTGCAGGC; antisense; DNA, all phosphorothioate, methylation of C not given here)” was “+++ (“+++” when the suppression rate was at least 70%)”.

The same data set, now with this note: 200 nM; RD cell; corrected by GAPDH.
Turning to “H105: ggcattggtaccaatgactg (dG*dG*dC*dA*dT*dT*dG*dG*dT*dA*dC*dC*dA*dA*dT*dG*dA*dC*dT*dG; antisense)”, the “suppression rate of expression, 200 nM” value was “+ (“+” when the suppression rate was at least 30%)”. With “H195: tgcctgggcagtaggtttct (dT*dG*dC*dC*dT*dG*dG*dG*dC*dA*dG*dT*dA*dG*dG*dT*dT*dT*dC*dT; antisense)”, the “suppression rate of expression, 200 nM” value is “++ (“++” when the suppression rate was at least 50%)”.

For the substance “H171: gggactgctttccaataagg (dG*dG*dG*dA*dC*dT*dG*dC*dT*dT*dT*dC*dC*dA*dA*dT*dA*dA*dG*dG; antisense)”, the “suppression rate of expression, 200 nM” value is “++ (“++” when the suppression rate was at least 50%)”.

On to “H184: ggctacaccttaagattcct (dG*dG*dC*dT*dA*dC*dA*dC*dC*dT*dT*dA*dA*dG*dA*dT*dT*dC*dC*dT; antisense)”, for which the “suppression rate of expression, 200 nM” value is reported as “+ (“+” when the suppression rate was at least 30%)”. The same measure, in the same setting: the value for “H135: aacattctgacactgcagca (AACATTCTGACACTGCAGCA; antisense; DNA, all phosphorothioate, methylation of C not given here)” was “++ (“++” when the suppression rate was at least 50%)”.

Turning to “H061: agctgcgcattgtcatggga (dA*dG*dC*dT*dG*dC*dG*dC*dA*dT*dT*dG*dT*dC*dA*dT*dG*dG*dG*dA; antisense)”, the “suppression rate of expression, 200 nM” value was “+ (“+” when the suppression rate was at least 30%)”.

As for “H002: actgtccgagttggcccggg (ACTGTCCGAGTTGGCCCGGG; antisense; DNA, all phosphorothioate, methylation of C not given here)”, the “suppression rate of expression, 200 nM” value is reported as “++ (“++” when the suppression rate was at least 50%)”. On the same count and under the same terms, the value for “H096: tccccagagtgtgacacact (dT*dC*dC*dC*dC*dA*dG*dA*dG*dT*dG*dT*dG*dA*dC*dA*dC*dA*dC*dT; antisense)” was “+ (“+” when the suppression rate was at least 30%)”. Regarding “H044: tctttgcagcgaggtttggt (TCTTTGCAGCGAGGTTTGGT; antisense; DNA, all phosphorothioate, methylation of C not given here)”, the “suppression rate of expression, 200 nM” value was “++ (“++” when the suppression rate was at least 50%)”. “H079: tggcccccgaaagactccct (dT*dG*dG*dC*dC*dC*dC*dC*dG*dA*dA*dA*dG*dA*dC*dT*dC*dC*dC*dT; antisense)”: the “suppression rate of expression, 200 nM” value is “++ (“++” when the suppression rate was at least 50%)”. Regarding “H109: tcatcgcccaagtacacgtg (dT*dC*dA*dT*dC*dG*dC*dC*dC*dA*dA*dG*dT*dA*dC*dA*dC*dG*dT*dG; antisense)”, the “suppression rate of expression, 200 nM” value is reported as “++ (“++” when the suppression rate was at least 50%)”.

With “H163: cactgtaatcaacattctgc (dC*dA*dC*dT*dG*dT*dA*dA*dT*dC*dA*dA*dC*dA*dT*dT*dC*dT*dG*dC; antisense)”, the “suppression rate of expression, 200 nM” value is reported as “+ (“+” when the suppression rate was at least 30%)”. As for “H010: cctcggcgagtcagctccgg (CCTCGGCGAGTCAGCTCCGG; antisense; DNA, all phosphorothioate, methylation of C not given here)”, the “suppression rate of expression, 200 nM” value is reported as “++ (“++” when the suppression rate was at least 50%)”. On the same count and under the same terms, with “H179: gttgtcaaggggcacagggc (dG*dT*dT*dG*dT*dC*dA*dA*dG*dG*dG*dG*dC*dA*dC*dA*dG*dG*dG*dC; antisense)” the entry was “++ (“++” when the suppression rate was at least 50%)”; with “H110: caagccctgggtccggcatg (dC*dA*dA*dG*dC*dC*dC*dT*dG*dG*dG*dT*dC*dC*dG*dG*dC*dA*dT*dG; antisense)”, “++ (“++” when the suppression rate was at least 50%)”; with “H172: gcacagctgggggtagttgg (dG*dC*dA*dC*dA*dG*dC*dT*dG*dG*dG*dG*dG*dT*dA*dG*dT*dT*dG*dG; antisense)”, “+++ (“+++” when the suppression rate was at least 70%)”.

In the case of “H160: gcaccatagcacagcacagc (dG*dC*dA*dC*dC*dA*dT*dA*dG*dC*dA*dC*dA*dG*dC*dA*dC*dA*dG*dC; antisense)”, the “suppression rate of expression, 200 nM” value is “++ (“++” when the suppression rate was at least 50%)”. On the same count and under the same terms, the value for “H177: gcctggacctgaagcccctt (dG*dC*dC*dT*dG*dG*dA*dC*dC*dT*dG*dA*dA*dG*dC*dC*dC*dC*dT*dT; antisense)” was “+++ (“+++” when the suppression rate was at least 70%)”; that for “H180: ccctgggagcctgcctgcca (dC*dC*dC*dT*dG*dG*dG*dA*dG*dC*dC*dT*dG*dC*dC*dT*dG*dC*dC*dA; antisense)” was “++ (“++” when the suppression rate was at least 50%)”; that for “H182: ccaaagcttcctggccagaa (dC*dC*dA*dA*dA*dG*dC*dT*dT*dC*dC*dT*dG*dG*dC*dC*dA*dG*dA*dA; antisense)” was “++ (“++” when the suppression rate was at least 50%)”. The same measure, in the same setting: with “H063: catgccgatggtggtccctt (dC*dA*dT*dG*dC*dC*dG*dA*dT*dG*dG*dT*dG*dG*dT*dC*dC*dC*dT*dT; antisense)” the entry was “++ (“++” when the suppression rate was at least 50%)”.

Staying with this data set, now noted: 200 nM; chimeric 2′-methoxy antisense oligonucleotides; RD cell.
“H077-OMe2: chimeric antisense oligonucleotide AAACAggcacaccccCATTC, uppercase 2′-methoxy nucleotides, lowercase phosphorothioate nucleotides (AAACAGGCACACCCCCATTC; 2'-O-methyl at 1, 2, 3, 4, 5, 16, 17, 18, 19, 20, other sugars, backbone and T or U not given here; lowercase gap nucleotides phosphorothioate)”: the “suppression rate of expression, 200 nM” value was “+ (“+” when the suppression rate was at least 30%)”.
